The source of these data is patent US20020049205A1, “Pyrazole antimicrobial agents” (priority 2000, published 2002).

One test deals with S. au. In words: Minimum Inhibitory Concentration assay, S. au. The class given is cell-based. Particulars: LB medium, 16 hours, 37° C. On the procedure:
(§1) For Minimum Inhibitory Concentration (MIC) determinations for selected bacteria, log phase growing bacteria are re-suspended at 1×10^5 bacteria per mL in LB medium. The compound is added and two-fold dilutions are made. The final volume in the 96-well plate is about 100 μL. The plate is incubated at 37° C. in the dark with shaking. After 16 hours of incubation, growth is monitored by reading A600 or by visual inspection. MIC is defined as the minimum concentration of drug resulting in inhibition of visible growth of bacterial under the conditions described (above) in National Committee for Clinical Laboratory Standards 1993. Methods for dilution antimicrobial susceptibility tests for bacteria that grow aerobically. Approved standard M7-A3; National Committee for Clinical Laboratory Standards: Villanova, Pa.
as §1, with “MIC” for “Minimum Inhibitory Concentration (MIC)”

A further test has as its system B. su. The test can be described thus: Minimum Inhibitory Concentration assay, B. su. Type of test: cell-based. Particulars: LB medium, 16 hours, 37° C. On the procedure: as §1
as §1, with “MIC” for “Minimum Inhibitory Concentration (MIC)”

Test [1] deals with T1, Sigma^70 saturated E. coli RNA Polymerase (Escherichia coli, UniProt P0A7Z4+P0A800+P0A8T7+P0A8V2).
T1 construct: purchased Epicenter
The test can be described thus: IC50 assay, inhibition of RNA polymerase. The class given is biochemical. The protocol: One common assay involves evaluation of the compounds as RNA polymerase inhibitors. In this assay, buffer (250 mM KCl, 5% glycerol, 10 mM MgCl2, 0.1 mg/ml BSA) is combined with 6 mM β-M.E., PT5 DNA template, and 1.3 μg/rxn Sigma^70 saturated E. coli RNA Polymerase (Epicenter). The compound is then added in a manner not to exceed 5% DMSO. Nucleotide triphosphates are then added at the following concentration: 250 μM ATP, CTP and UTP with 100 μM cold CTP and 50 μM α-^32P CTP. The mixture is incubated for 10 min at about 37° C. A [2×] loading buffer is added and the mixture is then run on a 6% urea denaturing PAGE until bromophenol blue reaches the edge of plate. The gel is soaked (about 20 minutes in 10% MeOH and 10% acetic acid, to remove urea), then dried (about 55 minutes at about 85° C. (BioRad Gel Drier)) and exposed to a Phospho Imaging Plate for 1 hour. The plate is then read on a Fujix Bas1000 Imaging System and quantified using MacBas v2.0 software. An IC50 (in μM) can be calculated as the concentration of a drug which reduces the enzyme activity to 50% of the control.
In this assay, buffer (250 mM KCl, 5% Glycerol, 10 mM MgCl2, 0.1 mg/ml bovine serum albumin (BSA)) is combined with 6 mM β-mercaptoethanol, PT5 DNA template, and 1.3 μg/rxn Sigma^70 saturated E. coli RNA Polymerase (obtained from Epicenter). The compound is then added in a manner not to exceed 5% DMSO. Nucleotide triphosphates are then added at the following concentration: 250 μM ATP, CTP and UTP with 100 μM cold CTP and 50 μM α-32P CTP. The mixture is incubated for 10 min at about 37° C. A [2×] loading buffer is added and the mixture is then run on a 6% urea denaturing PAGE until bromophenol blue reaches the edge of plate. The gel is soaked (about 20 minutes in 10% MeOH and 10% acetic acid, to remove urea), then dried (about 55 minutes at about 85° C. (BioRad Gel Drier)) and exposed to a Phospho Imaging Plate for 1 hour. The plate is then read on a Fujix Bas1000 Imaging System and quantified using MacBas v2.0 software. An IC50 (in μM) can be calculated as the concentration of a compound of the invention that reduces the enzyme activity to 50% of the control. For the sake of clarity, the above-described assay is used to determine the IC50 values referenced in the claims. However, the skilled artisan will recognize that other methods can be used to determine an IC50 value.

Another test concerns E.c(tolC). In words: Minimum Inhibitory Concentration assay, E.c(tolC). The class given is cell-based. Particulars: 16 h, read-out: MIC (μM) E.c(tolC). The protocol:
as §1
as §1, with “MIC” for “Minimum Inhibitory Concentration (MIC)”

The mark [2] stands for this setting: Table 2, compounds of Formula 13.
Where [3] appears, read: Table 1, compounds of Formula 1.

A word on the MIC: it is the lowest concentration found to suppress growth. Usually IC50 stands for the concentration that inhibits the measured activity by half. Read a high IC50 as weaker potency in that assay.

T1 sequence (P0A8V2 whole entry): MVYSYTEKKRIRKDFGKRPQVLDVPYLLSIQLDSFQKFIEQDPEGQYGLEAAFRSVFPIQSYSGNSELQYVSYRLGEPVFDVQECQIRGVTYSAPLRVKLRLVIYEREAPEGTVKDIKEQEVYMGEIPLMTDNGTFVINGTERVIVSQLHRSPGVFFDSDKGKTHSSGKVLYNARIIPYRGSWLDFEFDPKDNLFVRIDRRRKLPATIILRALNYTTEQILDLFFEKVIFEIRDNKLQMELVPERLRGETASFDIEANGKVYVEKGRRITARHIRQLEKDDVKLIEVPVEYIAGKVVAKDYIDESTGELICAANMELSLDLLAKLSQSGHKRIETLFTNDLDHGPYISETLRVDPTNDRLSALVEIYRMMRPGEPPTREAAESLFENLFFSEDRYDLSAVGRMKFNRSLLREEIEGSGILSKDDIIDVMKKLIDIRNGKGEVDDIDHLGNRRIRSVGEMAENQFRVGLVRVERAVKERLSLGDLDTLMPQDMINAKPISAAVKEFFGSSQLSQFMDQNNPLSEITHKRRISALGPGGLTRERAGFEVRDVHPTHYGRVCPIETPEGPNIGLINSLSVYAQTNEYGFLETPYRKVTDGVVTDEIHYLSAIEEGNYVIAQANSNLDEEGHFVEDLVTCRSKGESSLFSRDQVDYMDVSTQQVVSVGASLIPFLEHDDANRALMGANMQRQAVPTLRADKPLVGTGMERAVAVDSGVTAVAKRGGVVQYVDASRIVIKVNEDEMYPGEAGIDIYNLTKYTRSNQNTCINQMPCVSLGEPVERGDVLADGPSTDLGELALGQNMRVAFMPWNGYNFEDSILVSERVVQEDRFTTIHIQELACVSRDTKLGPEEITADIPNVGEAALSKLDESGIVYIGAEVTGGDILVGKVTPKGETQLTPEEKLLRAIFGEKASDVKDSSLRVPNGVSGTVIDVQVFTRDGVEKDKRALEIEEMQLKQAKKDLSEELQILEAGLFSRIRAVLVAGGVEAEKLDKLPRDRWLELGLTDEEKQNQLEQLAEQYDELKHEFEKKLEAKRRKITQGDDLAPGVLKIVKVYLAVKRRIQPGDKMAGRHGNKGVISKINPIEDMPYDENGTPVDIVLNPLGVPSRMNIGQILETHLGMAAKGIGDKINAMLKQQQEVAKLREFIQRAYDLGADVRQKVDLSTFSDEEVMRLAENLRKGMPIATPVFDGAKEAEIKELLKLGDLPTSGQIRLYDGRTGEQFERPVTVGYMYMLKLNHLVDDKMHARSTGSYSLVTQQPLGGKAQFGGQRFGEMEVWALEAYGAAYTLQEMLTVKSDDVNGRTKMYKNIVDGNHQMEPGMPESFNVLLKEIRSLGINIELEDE
T1 sequence (P0A8T7 whole entry): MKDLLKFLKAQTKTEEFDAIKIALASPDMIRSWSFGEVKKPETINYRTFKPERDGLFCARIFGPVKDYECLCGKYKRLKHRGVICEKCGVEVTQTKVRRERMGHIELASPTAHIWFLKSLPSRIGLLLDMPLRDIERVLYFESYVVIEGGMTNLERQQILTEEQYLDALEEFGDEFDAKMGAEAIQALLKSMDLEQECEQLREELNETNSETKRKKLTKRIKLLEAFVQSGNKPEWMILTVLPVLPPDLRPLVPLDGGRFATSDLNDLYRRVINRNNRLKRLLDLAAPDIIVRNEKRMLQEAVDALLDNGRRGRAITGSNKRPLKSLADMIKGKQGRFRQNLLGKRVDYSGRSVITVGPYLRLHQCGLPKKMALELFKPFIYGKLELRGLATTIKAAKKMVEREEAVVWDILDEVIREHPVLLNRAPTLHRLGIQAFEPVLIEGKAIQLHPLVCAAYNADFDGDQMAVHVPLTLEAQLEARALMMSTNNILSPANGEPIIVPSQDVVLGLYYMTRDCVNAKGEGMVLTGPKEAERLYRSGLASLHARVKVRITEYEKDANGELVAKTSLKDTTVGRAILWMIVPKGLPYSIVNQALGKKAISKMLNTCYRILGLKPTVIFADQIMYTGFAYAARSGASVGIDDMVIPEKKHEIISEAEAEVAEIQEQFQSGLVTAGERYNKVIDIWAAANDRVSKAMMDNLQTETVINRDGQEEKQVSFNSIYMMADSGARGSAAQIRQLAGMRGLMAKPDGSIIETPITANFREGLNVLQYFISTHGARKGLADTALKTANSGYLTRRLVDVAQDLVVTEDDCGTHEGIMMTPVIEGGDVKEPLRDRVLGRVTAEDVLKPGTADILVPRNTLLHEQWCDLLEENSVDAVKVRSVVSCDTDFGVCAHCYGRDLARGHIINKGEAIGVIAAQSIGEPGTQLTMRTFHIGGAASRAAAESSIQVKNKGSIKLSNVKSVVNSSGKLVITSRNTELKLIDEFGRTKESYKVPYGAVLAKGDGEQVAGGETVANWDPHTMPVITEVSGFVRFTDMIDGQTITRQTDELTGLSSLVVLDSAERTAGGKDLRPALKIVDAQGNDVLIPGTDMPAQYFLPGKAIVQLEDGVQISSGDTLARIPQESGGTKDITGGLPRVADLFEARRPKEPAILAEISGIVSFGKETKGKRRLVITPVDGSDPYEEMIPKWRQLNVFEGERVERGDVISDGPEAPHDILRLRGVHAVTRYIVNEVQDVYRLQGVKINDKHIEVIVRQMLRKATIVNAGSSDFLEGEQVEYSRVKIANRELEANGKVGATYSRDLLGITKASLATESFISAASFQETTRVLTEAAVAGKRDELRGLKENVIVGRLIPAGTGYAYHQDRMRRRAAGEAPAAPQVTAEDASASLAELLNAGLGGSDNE
T1 sequence (P0A7Z4 whole entry): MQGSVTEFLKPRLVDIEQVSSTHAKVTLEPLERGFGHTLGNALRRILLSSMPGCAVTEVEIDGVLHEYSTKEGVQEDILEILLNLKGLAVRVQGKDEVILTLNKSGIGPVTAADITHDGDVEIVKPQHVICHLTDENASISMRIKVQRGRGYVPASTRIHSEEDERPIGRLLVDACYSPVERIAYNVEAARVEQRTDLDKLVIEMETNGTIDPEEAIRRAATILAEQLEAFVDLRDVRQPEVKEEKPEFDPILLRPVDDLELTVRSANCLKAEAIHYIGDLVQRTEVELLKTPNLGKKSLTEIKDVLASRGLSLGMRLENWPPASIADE
T1 sequence (P0A800 whole entry): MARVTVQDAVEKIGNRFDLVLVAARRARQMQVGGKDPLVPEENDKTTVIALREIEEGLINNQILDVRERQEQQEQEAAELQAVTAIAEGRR

For `O=c1[nH][nH]c(-c2ccc(Cl)cc2)c1-c1ccccc1` [Example 15, 5-(4-chlorophenyl)-4-phenyl-1,2-dihydropyrazol-3-one], the MIC with S. au (Table 2), with B. su (Table 2) and in the test on E.c(tolC) was below 500 µM each time. Also, in test [1] (setting [2]), the IC50 is above 500 µM.
As for `FC(F)(F)c1cc(-c2cn[nH]c2-c2cccc(Cl)c2)ccc1N1CCCC1` [Example 12], the MIC against S. au (Table 1), in the test with B. su (Table 1) and in the test on E.c(tolC) was below 500 µM each time. In test [1] (setting [3]), this compound gave an IC50 above 500 µM.
For `NCCCNc1cc(-c2c[nH]nc2-c2ccc(F)cc2)cc(C(F)(F)F)c1` [Example 30], the MIC against S. au (Table 1), against B. su (Table 1) and with E.c(tolC) was below 500 µM in each case. The same compound yielded an IC50 in test [1] (setting [3]) above 500 µM.
Regarding `Fc1ccc(-c2n[nH]cc2-c2ccc(NCCNCc3ccccc3)c(C(F)(F)F)c2)cc1` [Example 21], the MIC in the test with S. au (Table 1), in the test with B. su (Table 1) and in the test on E.c(tolC) was below 500 µM throughout. This compound also displayed an IC50 in test [1] (setting [3]) below 500 µM.
In the case of `CS(=O)(=O)Nc1cccc(-c2c[nH]nc2-c2ccc(F)c(C(F)(F)F)c2)c1` [Example 36], the MIC against S. au (Table 1), against B. su (Table 1) and in the test on E.c(tolC) was below 500 µM throughout. This compound returned an IC50 in test [1] (setting [3]) below 500 µM.
For the compound `Nc1cccc(-c2c[nH]nc2-c2ccc(F)c(C(F)(F)F)c2)c1` [Example 34], the MIC with S. au (Table 1), against B. su (Table 1) and in the test on E.c(tolC) was below 500 µM in each case. Further, the IC50 in test [1] (setting [3]) was below 500 µM.
Consider `O=C(COc1ccccc1)Nc1cccc(-c2c[nH]nc2-c2ccc(F)c(C(F)(F)F)c2)c1` [Example 35], for which the minimal inhibitory concentration (MIC) was below 500 µM in the test on S. au (Table 1), above 500 µM in the test with B. su (Table 1) and above 500 µM in the test with E.c(tolC). The same compound came in with an IC50 in test [1] (setting [3]) below 500 µM.
For the compound `Clc1cccc(-c2[nH]ncc2-c2ccc(Cl)c(Cl)c2)c1` [Example 8], the minimal inhibitory concentration (MIC) in the test with S. au (Table 1), in the test on B. su (Table 1) and with E.c(tolC) was below 500 µM throughout. In test [1] (setting [3]), the IC50 is below 500 µM.
For `Fc1ccc(-c2n[nH]cc2-c2ccc(F)c(C(F)(F)F)c2)cc1` [Example 18], the minimum inhibitory concentration (MIC) in the test on S. au (Table 1), against B. su (Table 1) and with E.c(tolC) was below 500 µM throughout. For the same compound, the IC50 in test [1] (setting [3]) is below 500 µM.
In the case of `NS(=O)(=O)c1ccc(CCNc2ccc(-c3c[nH]nc3-c3ccc(F)cc3)cc2C(F)(F)F)cc1` [Example 22], the MIC with S. au (Table 1), against B. su (Table 1) and in the test with E.c(tolC) was below 500 µM each time. The IC50 in test [1] (setting [3]) is below 500 µM.
In the case of `Cc1c(-c2c[nH]nc2-c2ccc(F)cc2)sc2ccccc12` [Example 37], the minimal inhibitory concentration (MIC) in the test with S. au (Table 3), in the test with B. su (Table 3) and with E.c(tolC) was below 500 µM each time. For the same compound, in test [1] (Table 3, heteroaryl compounds), the IC50 was below 500 µM.
Regarding `COc1cccc(-c2[nH]ncc2-c2ccccc2)c1` [Example 2], the MIC against S. au (Table 1), in the test with B. su (Table 1) and in the test on E.c(tolC) was below 500 µM in each case. The compound also gave an IC50 in test [1] (setting [3]) above 500 µM.
In the case of `O=C(Nc1ccc(Cl)c(C(F)(F)F)c1)NC1CCN(c2ccc(-c3c[nH]nc3-c3ccc(F)cc3)cc2C(F)(F)F)C1` (centres unmarked) [Example 25], the figures for the MIC in the test with S. au (Table 1), against B. su (Table 1) and in the test on E.c(tolC) were below 500 µM, below 500 µM and above 500 µM, respectively. The same compound returned an IC50 in test [1] (setting [3]) below 500 µM.
Consider `NCCNc1cc(-c2c[nH]nc2-c2ccc(F)cc2)cc(C(F)(F)F)c1` [Example 27], for which the MIC against S. au (Table 1), with B. su (Table 1) and in the test on E.c(tolC) was below 500 µM in each case. In test [1] (setting [3]), this compound displayed an IC50 below 500 µM.
On to `O=c1[nH][nH]c(-c2ccc(Cl)cc2)c1-c1cccc(C(F)(F)F)c1` [Example 17, 5-(4-chlorophenyl)-4-(3-trifluoromethylphenyl)-1,2-dihydropyrazol-3-one], for which the MIC against S. au (Table 2), against B. su (Table 2) and in the test on E.c(tolC) was below 500 µM in each case. This compound had an IC50 in test [1] (setting [2]) below 500 µM.
For the compound `O=c1[nH][nH]c(-c2cccc(C(F)(F)F)c2)c1-c1ccccc1` [Example 14, 4-phenyl-5-(3-trifluoromethylphenyl)-1,2-dihydropyrazol-3-one], the MIC in the test on S. au (Table 2), in the test with B. su (Table 2) and with E.c(tolC) was below 500 µM each time. In addition, the IC50 in test [1] (setting [2]) was below 500 µM.
`CS(=O)(=O)Nc1ccc(CCNc2ccc(-c3c[nH]nc3-c3ccc(F)cc3)cc2C(F)(F)F)cc1` [Example 23]: the MIC against S. au (Table 1), in the test with B. su (Table 1) and with E.c(tolC) was above 500 µM each time. The compound further displayed an IC50 in test [1] (setting [3]) above 500 µM.
Take `COc1ccc(-c2[nH]ncc2-c2ccccc2)cc1` [Example 6]: the MIC with S. au (Table 1), in the test on B. su (Table 1) and with E.c(tolC) was below 500 µM each time. Also, in test [1] (setting [3]), the IC50 was above 500 µM.
`Clc1cccc(-c2cn[nH]c2-c2ccc(Cl)c(Cl)c2)c1` [Example 7]: the minimal inhibitory concentration (MIC) with S. au (Table 1), in the test with B. su (Table 1) and in the test on E.c(tolC) was below 500 µM throughout. The compound further gave an IC50 in test [1] (setting [3]) above 500 µM.
Regarding `CCNC1CCN(c2ccc(-c3c[nH]nc3-c3ccc(F)cc3)cc2C(F)(F)F)C1` (centres unmarked) [Example 19], the MIC with S. au (Table 1), in the test with B. su (Table 1) and in the test with E.c(tolC) was below 500 µM each time. The compound also registered an IC50 in test [1] (setting [3]) below 500 µM.
